Results from patent US4725576A, “Fungicidal polypeptide compositions containing L-histidine and methods for use therefore” (priority 1985, dated 1988).

What was measured:
[1] = system: C. albicans; test: HRP added to growing C. albicans cells (FIG. 1); format: cell-based, Candida albicans; details: data not shown
Description: FIG. 1 is a plot showing the effect of the salivary histidine-rich polypeptide on the growth of C. albicans.
When HRP was not placed in the growth medium initially but was added to growing cells, the following observations were noted (FIG. 1).

[2] = system: Candida Albicans 18804; test: Proliferation of Candida albicans 18804 on denture acrylic strips, poly-L-histidine; format: cell-based
Description: Denture acrylic was uniformly cut into strips of dimension 1/8 inches×1/8 inches×31/2 inches. Each strip was attached to the inside of the cap of the screw cap tube (13 X 100 mm) such that the bottom of each strip lay 3/8 inches from the bottom of each tube. Tubes containing denture strips were sterilized in the ethylene oxide sterilizer. In this experiment, poly-L-histidine was dissolved in 0.025 M MES buffer, pH 5.2 with heating. As in the previous experiment, denture strips were first pretreated with poly-L-histidine (4 mg per ml) overnight prior to incubation with Candida albicans for 21/4 hours. Strips were then transferred to YSM without poly-histidine (controls) or to YSM containing poly-histidine at 2 mg per ml. Although there was precipitation of the poly-L-histidine in the YSM, strips were incubated for 24 hours until controls had reached an optical density at 600 nm=1.2 corresponding to 10^7 colony-forming units per ml. As in experiment with the L-histidine heptapeptide, strips were then transferred to YSM without poly-L-histidine and the growth curve was followed by monitoring the increase in turbidity.

[3] = system: S. mutans SB; test: Preincubation in acidic buffer, growth and viability of S. mutans SB; format: cell-based, Streptococcus mutans; details: for % Loss of Viability / GFU (colony forming units) / O.D. 675 nm: 500 μg/ml
Description: ^a S. mutans SB at 5 × 10^5 colony forming units per ml was
suspended and preincubated in MES buffer, pH 5.2, at an ionic strength of
0.025 for 1 and 2 hours at 37° C. Preincubation included various
dilution into Todd Hewitt dialysis growth media.
^b Optical densities were measured after 24 hours and 48 hours (value
in parenthesis) incubation at 37° C. for both 1 and 2 hour
^c Colony forming units were determined in duplicate after 24 hours
for both 1 and 2 hour preincubations. They were also determined after 48
hours on those 2 hour preincubation samples showing zero density (values

[4] = 1 hour preincubation, after 24 hours
[5] = 2 hours preincubation, after 24 hours
[6] = 2 hours preincubation, after 48 hours (in parenthesis)

Substance	effectiveness on growth of C. albicans compared to HRP [1]	effectiveness compared to His-7 ([2]; compare Table 8 to Table 7)	time for which growth is inhibited ([2]; denture strips, Table 8)	Optical Density at 600 nm ([2]; strips 4 mg per ml overnight, then YSM with 2 mg per ml 24 hours, then YSM without poly-L-histidine, 0 hours of incubation)	bacteriocidal activity for S. mutans SB ([3]; 1 or 2 hours preincubation in MES buffer, pH 5.2)	% Loss of Viability [3, 4]	GFU (colony forming units) [3, 4]	O.D. 675 nm ([3]; 1 hour preincubation, after 24 hours incubation)	bacteriocidal effect after 48 hours of incubation ([3]; 2 hour preincubation in the MES)	% Loss of Viability [3, 5]	GFU (colony forming units) [3, 5]	O.D. 675 nm ([3]; 2 hours preincubation, after 24 hours incubation)	% Loss of Viability [3, 6]	GFU (colony forming units) [3, 6]	O.D. 675 nm ([3]; 2 hours preincubation, after 48 hours incubation (in parenthesis))	optical densities after 48 hours in the growth media ([3]; cells previously exposed for 1 hour in the MES buffer)
Poly-L-histidine	similarly effective to the HRP	even more effective than His-7	80 h	.02	–	–	–	–	–	–	–	–	–	–	–	–
HEWL: hen egg white lysozyme	–	–	–	–	bacteriocidal activity	69.0%	35.5 × 10^9	0.08	continue to be bacteriocidal	100%	0	0	100%	0	0	attained optical densities similar to the controls
